{"source": "patent US8501713B2", "about": "“Drug combinations for the treatment of duchenne muscular dystrophy” (Summit Corporation PLC, priority 2007, dated 2013)", "data": [{"test_system": "Utrophin A promoter linked to a luciferase reporter gene", "test": "Luciferase reporter assay (murine H2K cells)", "assay_type": "cell-based", "details": "Mus musculus, H2K mdx", "how_it_was_run": "(§1)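 Compound at 10 μM final was applied for 48 hrs to plated H2K mdx myoblasts (33° C, 10% CO2, interferon-containing medium) bearing a luciferase gene under the utrophin A promoter. Luminescence from lysed cells served as read-out.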", "units": {"activity at 10 µM": "%"}, "values": [{"compound": "Nc1ccc2sc(-c3ccccc3)nc2c1", "note": "[Example 251, 2-phenylbenzo[d]thiazol-5-amine]", "activity at 10 µM": "301 to 400"}]}, {"test_system": "Utrophin A promoter linked to a luciferase reporter gene", "test": "Luciferase reporter assay (murine H2K cells)", "assay_type": "cell-based", "details": "Mus musculus, H2K mdx, luciferase level relative to control; H2K/mdx/Utro A reporter cells; compound 10 μM final concentration; read-out: Activity", "how_it_was_run": "as §1", "units": {"activity at 10 µM": "%"}, "values": [{"compound": "O=C(Nc1ccccc1)Nc1ccc2oc(-c3ccccc3)nc2c1", "note": "[Example 240, 1-phenyl-3-(2-phenylbenzo[d]oxazol-5-yl)urea]", "activity at 10 µM": "301 to 400"}, {"compound": "CC(C)NC(=O)Nc1ccc2oc(-c3ccccc3)nc2c1", "note": "[Example 241, 1-isopropyl-3-(2-phenylbenzo[d]oxazol-5-yl)urea]", "activity at 10 µM": "< 200"}, {"compound": "CCCC(=O)Nc1ccc2oc(-c3ccccc3F)nc2c1", "note": "[Example 242, N-(2-(2-fluorophenyl)benzo[d]oxazol-5-yl)butyramide]", "activity at 10 µM": "< 200"}, {"compound": "CC(C)C(=O)Nc1ccc2oc(-c3ccccc3F)nc2c1", "note": "[Example 243, N-(2-(2-fluorophenyl)benzo[d]oxazol-5-yl)isobutyramide]", "activity at 10 µM": "301 to 400"}, {"compound": "CCCC(=O)Nc1ccc2oc(-c3cccc(F)c3)nc2c1", "note": "[Example 244, N-(2-(3-fluorophenyl)benzo[d]oxazol-5-yl)butyramide]", "activity at 10 µM": "> 401"}, {"compound": "CC(C)C(=O)Nc1ccc2oc(-c3cccc(F)c3)nc2c1", "note": "[Example 245, N-(2-(3-fluorophenyl)benzo[d]oxazol-5-yl)isobutyramide]", "activity at 10 µM": "301 to 400"}, {"compound": "CC(C)(C)OC(=O)NCCC(=O)Nc1ccc2oc(-c3ccccc3)nc2c1", "note": "[Example 246, tert-butyl 3-oxo-3-(2-phenylbenzo[d]oxazol-5-ylamino)propylcarbamate]", "activity at 10 µM": "< 200"}, {"compound": "Cc1cc2nc(-c3ccc(F)cc3F)oc2cc1C", "note": "[Example 247, 2-(2,4-difluorophenyl)-5,6-dimethylbenzo[d]oxazole]", "activity at 10 µM": "201 to 300"}, {"compound": "CC(C)C(=O)Nc1ccc2oc(C3CCCCC3)nc2c1", "note": "[Example 248, N-(2-cyclohexylbenzo[d]oxazol-5-yl)isobutyramide]", "activity at 10 µM": "> 401"}, {"compound": "CCCC(=O)Nc1ccc2oc(C3CCCCC3)nc2c1", "note": "[Example 249, N-(2-cyclohexylbenzo[d]oxazol-5-yl)butyramide]", "activity at 10 µM": "< 200"}, {"compound": "CCCCc1ccc(-c2nc3cc([N+](=O)[O-])ccc3o2)nc1", "note": "[Example 250, 2-(5-butylpyridin-2-yl)-5-nitrobenzo[d]oxazole]", "activity at 10 µM": "< 200"}, {"compound": "CC(=O)Nc1ccc(-c2ccc3oc(-c4ccc(Cl)cc4)nc3c2)cc1", "note": "[Example 252, N-(4-(2-(4-chlorophenyl)benzo[d]oxazol-5-yl)phenyl)acetamide]", "activity at 10 µM": "301 to 400"}, {"compound": "CCCS(=O)(=O)Nc1ccc2oc(-c3ccc(C)cc3)nc2c1", "note": "[Example 253, N-(2-p-tolylbenzo[d]oxazol-5-yl)propane-1-sulfonamide]", "activity at 10 µM": "< 200"}, {"compound": "Cc1ccc(-c2nc3cc(NC(=O)CC(F)(F)F)ccc3o2)cc1", "note": "[Example 254, 3,3,3-trifluoro-N-(2-p-tolylbenzo[d]oxazol-5-yl)propanamide]", "activity at 10 µM": "201 to 300"}, {"compound": "CC(C)C(=O)Nc1ccc2nc(-c3ccc(Cl)cc3)oc2c1", "note": "[Example 255, N-(2-(4-chlorophenyl)benzo[d]oxazol-6-yl)isobutyramide]", "activity at 10 µM": "> 401"}, {"compound": "CCCC(=O)Nc1ccc2nc(-c3ccc(Cl)cc3)oc2c1", "note": "[Example 256, N-(2-(4-chlorophenyl)benzo[d]oxazol-6-yl)butyramide]", "activity at 10 µM": "201 to 300"}, {"compound": "CC(C)C(=O)Nc1ccc2oc(-c3ccc(Cl)cc3Cl)nc2c1", "note": "[Example 257, N-(2-(2,4-dichlorophenyl)benzo[d]oxazol-5-yl)isobutyramide]", "activity at 10 µM": "< 200"}, {"compound": "CC(C)C(=O)Nc1ccc2oc(-c3ccc(F)cc3)nc2c1", "note": "[Example 258, N-(2-(4-fluorophenyl)benzo[d]oxazol-5-yl)isobutyramide]", "activity at 10 µM": "301 to 400"}, {"compound": "Cc1ccc(-c2nc3cc(NS(=O)(=O)C(C)C)ccc3o2)cc1", "note": "[Example 259, N-(2-p-tolylbenzo[d]oxazol-5-yl)propane-2-sulfonamide]", "activity at 10 µM": "< 200"}, {"compound": "CCCS(=O)(=O)Nc1ccc2oc(-c3ccc(Cl)cc3)nc2c1", "note": "[Example 260, N-(2-(4-chlorophenyl)benzo[d]oxazol-5-yl)propane-1-sulfonamide]", "activity at 10 µM": "< 200"}, {"compound": "CC(C)S(=O)(=O)Nc1ccc2oc(-c3ccc(Cl)cc3)nc2c1", "note": "[Example 261, N-(2-(4-chlorophenyl)benzo[d]oxazol-5-yl)propane-2-sulfonamide]", "activity at 10 µM": "< 200"}, {"compound": "CCCCc1ccc(-c2nc3ccc([N+](=O)[O-])cc3o2)nc1", "note": "[Example 262, 2-(5-butylpyridin-2-yl)-6-nitrobenzo[d]oxazole]", "activity at 10 µM": "201 to 300"}, {"compound": "CC(C)NC(=O)c1ccc2oc(-c3ccc(Cl)cc3)nc2c1", "note": "[Example 263, 2-(4-chlorophenyl)-N-isopropylbenzo[d]oxazole-5-carboxamide]", "activity at 10 µM": "301 to 400"}, {"compound": "NC(=O)c1ccc2oc(-c3ccc(Cl)cc3)nc2c1", "note": "[Example 264, 2-(4-chlorophenyl)benzo[d]oxazole-5-carboxamide]", "activity at 10 µM": "> 401"}, {"compound": "O=C(Nc1ccc2oc(-c3ccc(Cl)cc3)nc2c1)C1CC1", "note": "[Example 265, N-(2-(4-chlorophenyl)benzo[d]oxazol-5-yl)cyclopropanecarboxamide]", "activity at 10 µM": "> 401"}, {"compound": "O=C(Nc1ccc2oc(-c3ccc(Cl)cc3)nc2c1)C1CCC1", "note": "[Example 266, N-(2-(4-chlorophenyl)benzo[d]oxazol-5-yl)cyclobutanecarboxamide]", "activity at 10 µM": "301 to 400"}, {"compound": "CC(C)C(=O)Nc1ccc2sc(-c3ccccc3)nc2c1", "note": "[Example 267, N-(2-phenylbenzo[d]thiazol-5-yl)isobutyramide]", "activity at 10 µM": "> 401"}, {"compound": "CC(C)C(=O)Nc1ccc2oc(-c3ccc(Cl)c(Cl)c3)nc2c1", "note": "[Example 268, N-(2-(3,4-dichlorophenyl)benzo[d]oxazol-5-yl)isobutyramide]", "activity at 10 µM": "> 401"}, {"compound": "CCS(=O)(=O)c1ccc(-c2ccc3oc(-c4ccc(Cl)cc4)nc3c2)cc1", "note": "[Example 269, 2-(4-chlorophenyl)-5-(4-(ethylsulfonyl)phenyl)benzo[d]oxazole]", "activity at 10 µM": "< 200"}, {"compound": "CC(C)C(=O)Nc1ccc2oc(-c3ccc(Cl)cn3)nc2c1", "note": "[Example 270, N-(2-(5-chloropyridin-2-yl)benzo[d]oxazol-5-yl)isobutyramide]", "activity at 10 µM": "> 401"}, {"compound": "CC(C)C(=O)Nc1ccc2oc(-c3cc(Cl)cc(Cl)c3)nc2c1", "note": "[Example 271, N-(2-(3,5-dichlorophenyl)benzo[d]oxazol-5-yl)isobutyramide]", "activity at 10 µM": "201 to 300"}, {"compound": "C[C@H](N)C(=O)Nc1ccc2oc(-c3ccc(Cl)cc3)nc2c1", "note": "[Example 272, (S)-2-amino-N-(2-(4-chlorophenyl)benzo[d]oxazol-5-yl)propanamide]", "activity at 10 µM": "301 to 400"}, {"compound": "CC(C)C(=O)Nc1ccc2oc(-c3cccc(Cl)c3Cl)nc2c1", "note": "[Example 273, N-(2-(2,3-dichlorophenyl)benzo[d]oxazol-5-yl)isobutyramide]", "activity at 10 µM": "> 401"}, {"compound": "CC(C)NC(=S)c1ccc2oc(-c3ccc(Cl)cc3)nc2c1", "note": "[Example 274, 2-(4-chlorophenyl)-N-isopropylbenzo[d]oxazole-5-carbothioamide]", "activity at 10 µM": "< 200"}, {"compound": "CC(C)C(=S)Nc1ccc2oc(-c3ccc(Cl)cc3)nc2c1", "note": "[Example 275, N-(2-(4-chlorophenyl)benzo[d]oxazol-5-yl)-2-methylpropanethioamide]", "activity at 10 µM": "201 to 300"}, {"compound": "Nc1ccc2sc(-c3ccc(Cl)cc3)nc2c1", "note": "[Example 276, 2-(4-chlorophenyl)benzo[d]thiazol-5-amine]", "activity at 10 µM": "> 401"}, {"compound": "CC(C)C(=O)Nc1ccc2sc(-c3ccc(Cl)cc3)nc2c1", "note": "[Example 277, N-(2-(4-chlorophenyl)benzo[d]thiazol-5-yl)isobutyramide]", "activity at 10 µM": "301 to 400"}]}]}
